Experimental data: patent US6656714B2, “Nucleic acids and proteins of a rat ganglioside GM1-specific α1→2 fucosyltransferase and uses thereof” (Northwest Hospital, priority 1999, dated 2003)

Experiments:
α1→2FucT = α1→2FucT enzyme activity in liver of AAF-fed rats; format: in vivo; conditions: AAF-fed rat liver sample; none detected in normal liver
[1] = target: T1, full length rat hepatoma α1→2FucT (Rattus norvegicus, UniProt Q10984); test: Enzyme assay of expressed recombinant full length α1→2FucT in homogenates of transfected COS-7 cells, transfer of [14C]fucose to GM1 (TLC); format: biochemical; conditions: for transfer to GM1 in the presence of additive, compared with no detergent or phospholipid: CHAPSO 100 μg, phosphatidylglycerol 250 μg
T1 construct: Full length α1→2FucT cDNA was then cloned into pcDNA 3 vector; expressed in transfected cells; host or cells: COS-7 cells, transient transfection, sonicated homogenate
T1 sequence (Q10984 1-380 isoform Q10984-2): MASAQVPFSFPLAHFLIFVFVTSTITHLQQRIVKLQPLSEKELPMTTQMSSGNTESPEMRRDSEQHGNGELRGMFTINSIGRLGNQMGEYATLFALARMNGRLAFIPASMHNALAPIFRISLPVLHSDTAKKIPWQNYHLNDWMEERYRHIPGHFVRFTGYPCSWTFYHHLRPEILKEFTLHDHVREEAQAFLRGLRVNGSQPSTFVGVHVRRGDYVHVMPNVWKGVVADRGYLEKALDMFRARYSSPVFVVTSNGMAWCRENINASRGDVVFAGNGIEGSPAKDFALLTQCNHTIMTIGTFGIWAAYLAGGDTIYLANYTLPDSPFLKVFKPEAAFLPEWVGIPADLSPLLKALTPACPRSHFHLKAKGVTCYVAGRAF
Source text: Expression of full length α1→2FucT cDNA in transfected cells results in membrane-bound enzyme. COS-7 cells were transiently transfected by the DEAE-dextran method (Ausubel, F. M., et al., Current Protocols in Molecular Biology, Wiley, N.Y.) with either FL-RFT-pcDNA3 or FL-RFT(−)-pcDNA3. Four to five days later, the cells were harvested, sonicated in HEPES, glycerol, DTE buffer and assayed for enzyme activity as described previously (Sherwood, A. L., et al., 1998, Arch. Biochem. Biophys. 355:215-221).

[2] = target: T2, recombinant rat α1→2fucosyltransferase (Rattus norvegicus, UniProt Q10984); test: Preparative in vitro biosynthesis of fucosyl-GM1 with homogenate of COS-7 cells expressing rat α1→2fucosyltransferase (HPTLC); format: biochemical; conditions: 0.5 mg GM1, 2 mg crude cell homogenate, after 24 to 48 hours
T2 construct: Full length α1→2FucT cDNA was then cloned into pcDNA 3 vector; expressed in transfected cells; host or cells: COS-7 cells, transient transfection, sonicated homogenate
T2 sequence (Q10984 1-380 isoform Q10984-2): T1 sequence (Q10984 1-380 isoform Q10984-2)
Experimental: Preparative biosynthesis of fucosyl-GM1 was conducted in reaction mixtures composed of 25 μmol of HEPES buffer, pH 7.2, 10 μmol of MnCl2, 500 μg CHAPSO, 0.5 mg GM1, and 2 mg crude cell homogenate of COS-7 cells transiently transfected with plasmid containing the entire rat α1→2fucosyltransferase coding sequence in a total volume of 0.5 ml. Progress of the reaction was followed with time by withdrawing 2 μl of the reaction mixture and spotting it on an HPTLC plate. The plate was developed in a solvent system composed of CHCL3:CH3OH:H2O, 60:40:9, containing 0.02% CaCl2. Glycolipid bands were determined by orcinol spray (FIG. 9).

[3] = target: T3, catalytic domain of rat hepatoma H35 cell α1→2FucT (Rattus norvegicus, UniProt Q10984); test: α1→2Fucosyltransferase assay, pPROTA-expressed catalytic domain on IgG-agarose beads, transfer of [14C]fucose to glycolipid acceptors (TLC); format: biochemical; conditions: 30 μg acceptor, 2 h at 37° C., 250 μg phosphatidylglycerol, GDP-[14C]fucose
T3 construct: made in house; host or cells: COS-7 cells (secreted fusion protein, captured on IgG-agarose)
T3 sequence (Q10984 28-380 isoform Q10984-2): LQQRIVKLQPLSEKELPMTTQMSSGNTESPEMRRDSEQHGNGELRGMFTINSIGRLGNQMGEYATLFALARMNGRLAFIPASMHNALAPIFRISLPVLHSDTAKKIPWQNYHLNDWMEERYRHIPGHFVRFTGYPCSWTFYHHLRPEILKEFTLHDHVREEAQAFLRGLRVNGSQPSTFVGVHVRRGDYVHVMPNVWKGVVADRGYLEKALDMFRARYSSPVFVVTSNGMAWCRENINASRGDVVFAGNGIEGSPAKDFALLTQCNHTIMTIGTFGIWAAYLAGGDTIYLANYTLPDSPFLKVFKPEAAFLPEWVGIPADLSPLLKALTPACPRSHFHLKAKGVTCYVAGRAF
Experimental: For example, as illustrated in Section 6.3.2, infra, the activity of α1→2fucosyltransferase coupled to the IgG-binding domain of Protein A can be determined in reaction mixtures containing 2.5 μmol of HEPES buffer, pH7.2, 30 μg of GM1. ganglioside or nLc4, 250 μg phosphatidylglycerol, 1 μmol of MnCl2, 0.5 μmol of CDP-choline, 15 nmol of GDP-[^14C]fucose (15,000 cpm/nmol), and bound to IgG-agarose beads in a total volume of 0.1 ml. The reaction mixtures are incubated for 2 h at 37° C., terminated by the addition of 0.1 ml of CHCl3:CH3OH (2:1), streaked onto 4-cm-wide strips of Whatman 3 paper and developed with water overnight. The papers are dried and the labeled product extracted from the origins with 2- to 5-ml washes of CHCl3:CH3OH:H2O (10:5:1). The combined eluates are concentrated to dryness by an N2 stream and dissolved in 20 μl of CHCl3:CH3OH (2:1). A 10-μl aliquot of each is spotted onto a HP-TLC plate (Merck)and developed in a solvent system composed of CHCl3:CH3OH:H2O (60:40:9), 0.02% CaCl2.2H2O. […]
α1→2Fucosyltransferase activity was determined in reaction mixtures containing 2.5 μmol of HEPES buffer, pH7.2, 30 μg of GM1 ganglioside or nLc4, 250 μg phosphatidylglycerol, 1 μmol of MnCl2, 0.5 μmol of CDP-choline, 15 nmol of GDP-[^14C]fucose (15,000 cpm/nmol), and pPROTA-expressed enzyme bound to IgG-agarose beads in a total volume of 0.1 ml. […]

Row | Compound | transfer of fucose to acceptor [3] | transfer to GM1 in the presence of additive, compared with no detergent or phospholipid [1] | further results
1 | CC(=O)Nc1ccc2c(c1)Cc1ccccc1-2 [AAF, N-2-acetylaminofluorene] |  |  | α1→2FucT enzyme activity in liver (α1→2FucT): moderate level
2 | C[C@H](CCC(=O)NCCC[N+](C)(C)CC(O)CS(=O)(=O)[O-])[C@H]1CC[C@H]2[C@@H]3[C@H](O)C[C@@H]4C[C@H](O)CC[C@]4(C)[C@H]3C[C@H](O)[C@]12C (stereo partly shown) [CHAPSO] |  | Comparable transfer | 
3 | II^3NeuAcGg4 [GM1] | transfer fucose to GM1 |  | conversion of GM1 to fucosyl-GM1 [2]: almost complete conversion; transfer of fucose to GM1 by full length enzyme ([1]; two hours at 37° C.): transfers fucose to GM1 with high efficiency
4 | lactoneotetraosylceramide [nLcOse4Cer] | No detectable transfer |  | 
5 | phosphatidylglycerol |  | Somewhat less transfer | 
